Laboratory results: patent publication US20250361269A1, “PEPTIDE EXHIBITING MUSCLE LOSS PREVENTION AND MUSCLE MASS PROMOTION ACTIVITIES, AND USE THEREOF” (CAREGEN CO., LTD., priority 2022, published 2025)

Legend:
C2C12 cells [1] = assay: Western blotting of early differentiation markers in C2C12 myoblasts; format: cell-based, mouse; conditions: 5, 50, or 100 ug/ml peptide, after three days in differentiation medium, vs CM group
Experimental: In this example, by evaluating changes in the expression of an early differentiation marker protein of C2C12 cells, which are mouse myoblasts, it was to confirm the effects of the peptide according to an example on the differentiation of myoblasts into muscle cells/muscle fibers at an early differentiation stage.
The C2C12 cells were cultured in a DMEM supplemented with 1% P/S and 2% BCS. When the cell confluency reached 70-80%, the cells were seeded into 6-well culture plates. Afterwards, when the cell confluency in the 6-well culture plate reached 100%, the culture medium was replaced with a differentiation medium (supplemented with 1% P/S and 2% horse serum), and 5, 50, or 100 ug/ml of the peptide of SEQ ID NO: 1 was added thereto. Afterwards, the differentiation medium and the same amount of the peptide of SEQ ID NO: 1 were replaced and added, respectively, once every two days. After three days from the first day of medium replacement, the culture was lysed by adding a dissolution buffer thereto, and proteins were obtained by centrifugation at 4° C. and 12,000 rpm for 30 minutes. These proteins were then quantified by using a BCA kit. […] After washing with PBS-T again, the proteins were detected by using Gel Doc (Bio-Rad, Hercules, CA, USA) and Western detection reagents (Elpis Biotech, Daejeon, Korea). […]

C2C12 cells [2] = assay: Immunofluorescence of myogenin (MyoG) in C2C12 myoblasts; format: cell-based, mouse; conditions: 100 ug/ml peptide, after three days in differentiation medium
Experimental: C2C12 cells were cultured in a DMEM supplemented with 1% P/S and 2% BCS. When the cell confluency reached 70-80%, the cells were seeded into a 6-well culture plate. Afterwards, when the cell confluency in the 6-well culture plate reached 100%, the culture medium was replaced with a differentiation medium (supplemented with 1% P/S and 2% horse serum), and 100 ug/ml of the peptide of SEQ ID NO: 1 was added thereto. Afterwards, the differentiation medium and 100 ug/ml of the peptide were replaced and added, respectively, once every two days. After three days from the first day of medium replacement, the cultured cells were fixed with 4% paraformaldehyde (PFA) at room temperature for 10 minutes and permeabilized with 0.1% triton X-100 for 5 minutes. Afterwards, the fixed cells were mixed with PBS, 10% FBS, and 0.1% triton X-100 for blocking at room temperature for 1 hour, and then treated with primary antibodies (MyoG, Santa Cruz, USA). The resulting cells were incubated for 1 hour at room temperature. Afterwards, the cells were washed, and incubated again with secondary antibodies (goat anti-mouse IgG-TR, Santa Cruz, USA) at room temperature for 30 minutes. Afterwards, the cell nuclei were stained with DAPI (Santa Cruz, USA) and observed under a LEICA fluorescence microscope (TCS SP8, LEICA, Germany).

C2C12 cells [3] = assay: Western blotting of late differentiation marker MyHC in C2C12 myoblasts; format: cell-based, mouse; conditions: 5, 50, or 100 ug/ml peptide, after 7 days in differentiation medium, vs CM group
Experimental: The C2C12 cells were cultured in a DMEM supplemented with 1% P/S and 2% BCS. When the cell confluency reached 70-80%, the cells were seeded into 6-well culture plates. Afterwards, when the cell confluency in the 6-well culture plate reached 100%, the culture medium was replaced with a differentiation medium (supplemented with 1% P/S and 2% horse serum), and 5, 50, or 100 ug/ml of the peptide of SEQ ID NO: 1 was added thereto. Afterwards, the differentiation medium and the same amount of the peptide of SEQ ID NO: 1 were replaced and added, respectively, once every two days. […] These proteins were then quantified by using a BCA kit. SDS-PAGE was performed on samples containing these proteins to separate the respective proteins which were then electrotransferred onto a membrane. The membrane to which the proteins were attached was blocked by treating with 5% skim milk, and primary antibodies were allowed for a reaction overnight at 4° C. After washing with PBS-T, secondary antibodies were allowed for a reaction at room temperature for 1 hour. After washing with PBS-T again, the proteins were detected by using Gel Doc (Bio-Rad, Hercules, CA, USA) and Western detection reagents (Elpis Biotech, Daejeon, Korea). […]

C2C12 cells [4] = assay: Immunofluorescence of a-actinin in C2C12 myoblasts; format: cell-based, mouse; conditions: after 7 days in differentiation medium, vs CM group
[5] = tested on: tibialis anterior (TA) muscle, muscle damage induced by BaCl2; assay: Muscle mass of TA muscle in BaCl2-induced muscle damage animal model; format: in vivo, C57BL/6 mouse; conditions: 20 mg peptide orally at 1-day intervals, six times; Day 7 after BaCl2 muscle damage
Experimental: In this example, an animal model of muscle damage induced by BaCl2 was used to determine the effect of the peptide according to an embodiment on the muscle loss prevention, by evaluating changes in muscle mass, areas of infiltration of immune cells in muscle tissue, levels of accumulated collagen, and expression levels of proteins constituting muscle fibers and inflammatory proteins. 50 μl of a 1.2% (w/v) BaCl2 aqueous solution was injected into the tibialis anterior (TA) muscle of a 8-week-old male C57BL/6 mouse to induce muscle damage for 1 day. Afterwards, 20 mg of the peptide of SEQ ID NO: 1 was administered orally at a concentration of 0.1 mg/μl at 1-day intervals for a total of six times to the mouse with induced muscle damage. For a positive control group, 0.5 ug of IGF-I was injected intramuscularly at a concentration of 0.01 ug/μl. On Day 7 after inducing the muscle damage, the mouse was sacrificed, and the changes in the TA muscle were visually observed and the mouse was weighed. A non-treated group (Non) was used as a control group, a group (N.C) in which only muscle damage was induced by BaCl2 was used as a negative control group, and a group (P.C) in which muscle damage was induced by BaCl2 and then treated with IGF-I was used as a positive control group.

[6] = tested on: muscle tissue, muscle damage induced by BaCl2; assay: H&E staining of muscle tissue from BaCl2-induced muscle damage model; format: in vivo, C57BL/6 mouse; conditions: 20 mg peptide orally, six times, Day 7 after BaCl2 muscle damage
Experimental: (§1) 50 μl of a 1.2% (w/v) BaCl2 aqueous solution was injected into the tibialis anterior (TA) muscle of a 8-week-old male C57BL/6 mouse to induce muscle damage for 1 day. Afterwards, 20 mg of the peptide of SEQ ID NO: 1 was administered orally at a concentration of 0.1 mg/μl at 1-day intervals for a total of six times to the mouse with induced muscle damage. For a positive control group, 0.5 ug of IGF-I was injected intramuscularly at a concentration of 0.01 ug/μl. On Day 7 after inducing the muscle damage, the mouse was sacrificed, and the changes in the TA muscle were visually observed and the mouse was weighed. A non-treated group (Non) was used as a control group, a group (N.C) in which only muscle damage was induced by BaCl2 was used as a negative control group, and a group (P.C) in which muscle damage was induced by BaCl2 and then treated with IGF-I was used as a positive control group. Muscle tissue obtained from the mouse with induced muscle damage of Example 4-1 was washed with PBS at room temperature and then fixed with 4% paraformaldehyde (PFA). Afterwards, the fixed muscle tissue was washed three times with PBS and dehydrated by using a gradient ethanol series (from 70% to 100%). A sample of the muscle tissue was sectioned into 4 μm sections. […]

[7] = tested on: muscle tissue, muscle damage induced by BaCl2; assay: Sirius red staining of muscle tissue from BaCl2-induced muscle damage model; format: in vivo, C57BL/6 mouse; conditions: 20 mg peptide orally, six times, Day 7 after BaCl2 muscle damage
Experimental: as §1

[8] = tested on: muscle tissue, muscle damage induced by BaCl2; assay: Western blotting of protein expression in muscle tissue from BaCl2-induced muscle damage model; format: in vivo, C57BL/6 mouse; conditions: 20 mg peptide orally, six times, Day 7 after BaCl2 muscle damage
Experimental: 50 μl of a 1.2% (w/v) BaCl2 aqueous solution was injected into the tibialis anterior (TA) muscle of a 8-week-old male C57BL/6 mouse to induce muscle damage for 1 day. Afterwards, 20 mg of the peptide of SEQ ID NO: 1 was administered orally at a concentration of 0.1 mg/μl at 1-day intervals for a total of six times to the mouse with induced muscle damage. For a positive control group, 0.5 ug of IGF-I was injected intramuscularly at a concentration of 0.01 ug/μl. On Day 7 after inducing the muscle damage, the mouse was sacrificed, and the changes in the TA muscle were visually observed and the mouse was weighed. A non-treated group (Non) was used as a control group, a group (N.C) in which only muscle damage was induced by BaCl2 was used as a negative control group, and a group (P.C) in which muscle damage was induced by BaCl2 and then treated with IGF-I was used as a positive control group. The muscle tissue obtained from the mouse with the induced muscle damage of Example 4-1 was lysed by using homogenizer, and the lysate was dissolved by adding a dissolution buffer thereto. The resulting product was centrifuged at 4° C. and 12,000 rpm for 30 minutes to obtain proteins which were then quantified by using a BCA kit. SDS-PAGE was performed on samples containing these proteins to separate the respective proteins which were then electrotransferred onto a membrane. The membrane to which the proteins were attached was blocked by treating with 5% skim milk, and primary antibodies were allowed for a reaction overnight at 4° C. After washing with PBS-T, secondary antibodies were allowed for a reaction at room temperature for 1 hour. After washing with PBS-T again, the proteins were detected by using Gel Doc (Bio-Rad, Hercules, CA, USA) and Western detection reagents (Elpis Biotech, Daejeon, Korea). Here, anti-MyHC (Santa Cruz, USA), anti-α-actinin (Santa Cruz, USA), anti-α-SMA (Abcam, UK), anti-IL-6 (Santa Cruz, USA), and anti-a-tubulin (Santa Cruz, USA) were used as the primary antibodies.

EAEYEHL [peptide of SEQ ID NO: 1]
expression of Myf5, early differentiation marker of myoblasts (C2C12 cells [1]): increased | expression of myogenin (MyoG), early differentiation marker of myoblasts (C2C12 cells [1]): increased | expression of myogenin (MyoG) (C2C12 cells [2]): increased | expression of myogenin (MyoG) in the nuclear region of myoblasts (C2C12 cells [2]): increased | expression of MyHC, late differentiation marker of myoblasts (C2C12 cells [3]): increased | expression of a-actinin, late differentiation marker of myoblasts (C2C12 cells [4]): increased | muscle mass of the TA muscle [5]: increased | area of infiltration of immune cells in the tissue [6]: reduced | accumulation of collagen in the tissue [7]: reduced | expression of IL-6 in damaged tissue [8]: decreased | expression of MyHC, protein constituting muscle fibers, in damaged tissue [8]: increased | expression of α-SMA, inflammatory protein, in damaged tissue [8]: decreased | expression of α-actinin in damaged tissue [8]: increased
